Test results from PubChem BioAssay AID248 (DTP/NCI, 2004).
Inconclusive results and toxic doses are left out. Rule as the data show it: active = T/C of 150% or more; inactive = T/C below 125%.

Test system: L1210 leukemia ip in BDF1 mice, survival T/C
Experiment: NCI In Vivo Anticancer Drug Screen. Data for tumor model L1210 Leukemia (intraperitoneal) in B6D2F1 (BDF1) mice
Conditions: endpoint: mean survival time, higher = longer survival
Summary of the method: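 Antitumor effect is assessed in tumor-bearing animals. Survival in the compound arm is compared with a vehicle-dosed control arm and expressed as their quotient.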

[1] = dose: 100.0 mg/kg/injection, schedule: Q01DX009 (ip), vehicle: Klucel (hydroxypropylcellulose) (HPC)
[2] = dose: 200.0 mg/kg/injection, schedule: Q01DX009 (ip), vehicle: Klucel (hydroxypropylcellulose) (HPC)
[3] = dose: 400.0 mg/kg/injection, schedule: Q01DX009 (ip), vehicle: Klucel (hydroxypropylcellulose) (HPC)
[4] = dose: 100.0 mg/kg/injection, schedule: Q01DX001 (ip), vehicle: saline
[5] = dose: 200.0 mg/kg/injection, schedule: Q01DX001 (ip), vehicle: saline
[6] = dose: 400.0 mg/kg/injection, schedule: Q01DX001 (ip), vehicle: saline
[7] = dose: 100.0 mg/kg/injection, schedule: Q04DX003 (ip), vehicle: saline with Tween-80
[8] = dose: 100.0 mg/kg/injection, schedule: Q04DX003 (ip), vehicle: saline
[9] = dose: 100.0 mg/kg/injection, schedule: Q04DX002 (ip), vehicle: Klucel (hydroxypropylcellulose) (HPC)
[10] = dose: 200.0 mg/kg/injection, schedule: Q04DX002 (ip), vehicle: Klucel (hydroxypropylcellulose) (HPC)
[11] = dose: 400.0 mg/kg/injection, schedule: Q04DX002 (ip), vehicle: Klucel (hydroxypropylcellulose) (HPC)
[12] = dose: 200.0 mg/kg/injection, schedule: Q04DX003 (ip), vehicle: saline

Measured: T/C

c1ccc2c(c1)c(N1CCOCC1)nn1nnnc21
inactive: dose: 37.5 mg/kg/injection, schedule: Q04DX003 (ip), vehicle: saline 101 % of control | dose: 75.0 mg/kg/injection, schedule: Q04DX003 (ip), vehicle: saline 98 % of control | dose: 150.0 mg/kg/injection, schedule: Q04DX003 (ip), vehicle: saline 98 % of control

O=C1C(Br)=CC(=NCl)C=C1Br
inactive: dose: 6.25 mg/kg/injection, schedule: Q01DX009 (ip), vehicle: DMSO 87 % of control | dose: 12.5 mg/kg/injection, schedule: Q01DX009 (ip), vehicle: DMSO 94 % of control | dose: 12.5 mg/kg/injection, schedule: Q04DX002 (ip), vehicle: DMSO 103 % of control | dose: 25.0 mg/kg/injection, schedule: Q04DX002 (ip), vehicle: DMSO 95 % of control

COc1c([N+](=O)[O-])cc(C(=O)O)cc1[N+](=O)[O-]
inactive: [1] 104 % of control | dose: 100.0 mg/kg/injection, schedule: Q04DX003 (ip), vehicle: Klucel (hydroxypropylcellulose) (HPC) 99 % of control | [2] 98 % of control | dose: 200.0 mg/kg/injection, schedule: Q04DX003 (ip), vehicle: Klucel (hydroxypropylcellulose) (HPC) 97 % of control | [3] 98 % of control | dose: 400.0 mg/kg/injection, schedule: Q04DX003 (ip), vehicle: Klucel (hydroxypropylcellulose) (HPC) 97 % of control

OCC(O)COc1ccccc1 (centres undefined)
inactive: [4] 108 % of control | [5] 96 % of control | [6] 96 % of control

COC(=O)CC(CC(=O)OC)c1cccc([N+](=O)[O-])c1
inactive: dose: 25.6 mg/kg/injection, schedule: Q04DX002 (ip), vehicle: saline with Tween-80 101 % of control | dose: 64.0 mg/kg/injection, schedule: Q04DX002 (ip), vehicle: saline with Tween-80 101 % of control | [7] 106 % of control | dose: 160.0 mg/kg/injection, schedule: Q04DX002 (ip), vehicle: saline with Tween-80 101 % of control | dose: 200.0 mg/kg/injection, schedule: Q04DX003 (ip), vehicle: saline with Tween-80 101 % of control | dose: 400.0 mg/kg/injection, schedule: Q04DX002 (ip), vehicle: saline with Tween-80 86 % of control | dose: 400.0 mg/kg/injection, schedule: Q04DX003 (ip), vehicle: saline with Tween-80 101 % of control

O=[N+]([O-])c1c(Cl)nc2sccn12
inactive: dose: 100.0 mg/kg/injection, schedule: Q04DX002 (ip), vehicle: saline 106 % of control | dose: 200.0 mg/kg/injection, schedule: Q04DX002 (ip), vehicle: saline 109 % of control | dose: 400.0 mg/kg/injection, schedule: Q04DX002 (ip), vehicle: saline 90 % of control

C/C(=N\[N+](C)(C)C)c1cccc(C)n1
inactive: dose: 25.0 mg/kg/injection, schedule: Q01DX009 (ip), vehicle: saline 97 % of control | dose: 25.0 mg/kg/injection, schedule: Q04DX003 (ip), vehicle: saline 107 % of control | dose: 50.0 mg/kg/injection, schedule: Q01DX009 (ip), vehicle: saline 105 % of control | dose: 50.0 mg/kg/injection, schedule: Q04DX003 (ip), vehicle: saline 102 % of control | [4] 103 % of control | dose: 100.0 mg/kg/injection, schedule: Q01DX009 (ip), vehicle: saline 100 % of control | [8] 100 % of control

CN(CC#N)c1ncnc(Cl)c1[N+](=O)[O-]
inactive: dose: 50.0 mg/kg/injection, schedule: Q01DX001 (ip), vehicle: carboxymethylcellulose (CMC) 95 % of control | dose: 100.0 mg/kg/injection, schedule: Q01DX001 (ip), vehicle: carboxymethylcellulose (CMC) 98 % of control | dose: 200.0 mg/kg/injection, schedule: Q01DX001 (ip), vehicle: carboxymethylcellulose (CMC) 88 % of control | dose: 400.0 mg/kg/injection, schedule: Q01DX001 (ip), vehicle: carboxymethylcellulose (CMC) 98 % of control

Cc1ccc(CNC(=O)NC(C)(C)C)cc1
inactive: [1] 93 % of control | [2] 101 % of control | [3] 90 % of control

CCCCn1c(=S)sc2ccccc21
inactive: [9] 94 % of control | [10] 109 % of control | [11] 88 % of control

COc1ccc(CCN(C)C(C)C2C3CC4CC(C3)CC2C4)cc1OC (centres undefined)
inactive: [8] 101 % of control | [12] 94 % of control

COc1ccc(S(=O)(=O)F)cc1NC(=O)NCc1ccc([N+](=O)[O-])cc1
inactive: [1] 103 % of control | [2] 110 % of control | [3] 108 % of control

COC(=O)C(Nc1ccc([N+](=O)[O-])cc1[N+](=O)[O-])C(O)c1ccccc1 (centres undefined)
inactive: [4] 98 % of control | [5] 111 % of control | [6] 93 % of control

Cc1nonc1NC(=O)OCc1ccccc1
inactive: [9] 97 % of control | [10] 93 % of control | [11] 104 % of control

O=C1NC(=O)C(=O)N1
inactive: [8] 96 % of control | [12] 96 % of control | dose: 400.0 mg/kg/injection, schedule: Q04DX003 (ip), vehicle: saline 86 % of control

CCCCOB(OCCCC)c1cccc(B(OCCCC)OCCCC)c1
inactive: [4] 89 % of control | [5] 101 % of control | [6] 117 % of control

C[N+]1(CC2CO2)CCCCCC1 (centres undefined)
inactive: dose: 75.0 mg/kg/injection, schedule: Q01DX001 (ip), vehicle: saline 95 % of control

COc1cccc(NC(=S)Nc2ccccc2)c1
inactive: [9] 95 % of control | [10] 88 % of control | [11] 111 % of control

NC1=NCCCN1
inactive: [7] 101 % of control

CN1C(=O)N(C)C(=O)C(O)(C2(O)C(=O)N(C)C(=O)N(C)C2=O)C1=O
inactive: dose: 9.38 mg/kg/injection, schedule: Q01DX001 (ip), vehicle: other 94 % of control | dose: 18.75 mg/kg/injection, schedule: Q01DX001 (ip), vehicle: other 94 % of control | dose: 37.5 mg/kg/injection, schedule: Q01DX001 (ip), vehicle: other 101 % of control
